The record followed here is patent US9193704B2, “Hydantoin derivatives as KV3 inhibitors” (AUTIFONY THERAPEUTICS LIMITED, priority 2011, dated 2015).

One data set has as its system p-glycoprotein. In words: In vivo pharmacokinetic assay with the PgP transport inhibitor Elacridar. To be noted: rat; Elacridar 3 mg/kg intravenous shortly before oral 1 mg/kg; 0.5 h; indicates absence of notable p-glycoprotein interactions. The method, then:
Adult male rats (Charles River, Italy) were dosed with test compound orally at 1 mg/kg (5 ml/kg, in 5% v/v DMSO, 0.5% w/v HPMC in water) and intravenously at 0.5 mg/kg (2 ml/kg, in 5% v/v DMSO 40% w/v PEG400 in saline). After oral administration, blood samples were collected under deep Isofluorane anesthesia from the portal vein and heart of each rat (1 rat per time point). After intravenous administration, serial blood samples were collected from the lateral tail vein of each rat. A further group of rats (n=1 per test compound) received a single intravenous administration of the PgP transport inhibitor, Elacridar (3 mg/kg) shortly before the oral administration of the test compound at 1 mg/kg, as above. Blood and brain samples were collected at a single timepoint of 0.5 h after dose administration for these animals. In all cases, blood samples were collected into potassium EDTA tubes.
Blood and brain samples were assayed for test compound concentration using a method based on protein precipitation with acetonitrile followed by HPLC/MS-MS analysis with an optimized analytical method.
The concentrations of test compound in blood (expressed as ng/ml) and brain (expressed as ng/g) at the different time points following either oral or intravenous dosing were analysed using a non-compartmental pharmacokinetic model using WinNonLin Professional version 4.1. The following parameters were derived:
Oral dosing: Cmax, time of maximum concentration (Tmax), AUC, bioavailability (F %), fraction absorbed (Fa %), blood to brain ratio (AUC BB), and Fold-change in AUC BB in the presence of Elacridar.

The test system of data set [1] is amphetamine induced hyperlocomotion. In words: Mouse model of amphetamine induced hyperlocomotion. It counts as in vivo. To be noted: 60 mg/kg, 60 minute period following amphetamine administration, P<0.01. The method, then:
Example 33 was tested in the_mouse model of amphetamine induced hyperlocomotion described in Example 93 of WO2011/069951A1.

In data set [2] the target is T1, human Kv3.1 channels (hKv3.1) (Homo sapiens, UniProt P48547).
T1 construct: expressed in transfected cells; host or cells: CHO/Gam/E1A-clone22 (CGE22) cells, CHO-K1-derived, transiently transduced with BacMam pFBM/human Kv3.1
T1 sequence (P48547 1-511): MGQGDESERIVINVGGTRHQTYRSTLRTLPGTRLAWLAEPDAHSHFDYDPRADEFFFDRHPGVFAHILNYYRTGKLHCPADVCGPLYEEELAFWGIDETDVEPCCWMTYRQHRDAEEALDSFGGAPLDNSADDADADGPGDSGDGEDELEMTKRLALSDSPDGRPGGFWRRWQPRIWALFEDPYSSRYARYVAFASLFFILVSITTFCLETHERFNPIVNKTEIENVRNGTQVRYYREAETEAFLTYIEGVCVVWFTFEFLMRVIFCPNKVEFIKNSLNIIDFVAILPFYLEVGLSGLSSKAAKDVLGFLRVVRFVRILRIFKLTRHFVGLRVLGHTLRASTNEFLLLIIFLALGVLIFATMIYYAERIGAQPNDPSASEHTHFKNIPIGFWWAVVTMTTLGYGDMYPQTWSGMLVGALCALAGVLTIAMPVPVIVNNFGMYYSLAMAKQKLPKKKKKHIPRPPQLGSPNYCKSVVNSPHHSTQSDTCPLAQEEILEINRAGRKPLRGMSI
The data set is described as follows: IonWorks Quattro electrophysiology, potentiation of hKv3.1 currents. It counts as cell-based. To be noted: between Kv3.1 and Kv3.2 channels. Background: Patch clamp records ionic current or voltage across a cell membrane.
Source text: The ability of the compounds of the invention to modulate the voltage-gated potassium channel subtypes Kv3.2/3.1 may be determined using the following assay.
This cell line was designed to be an improved CHO-K1-based host for enhanced recombinant protein expression as compared to wild type CHO-K1. The cell line was generated following the transduction of CHO-K1 cells with a BacMam virus expressing the Adenovirus-Gam1 protein and selection with Geneticin-G418, to generate a stable cell line, CHO/Gam-A3. CHO/Gam-A3 cells were transfected with pCDNA3-E1A-Hygro, followed by hygromycin-B selection and FACS sorting to obtain single-cell clones. BacMam-Luciferase and BacMam-GFP viruses were then used in transient transduction studies to select the clone based on highest BacMam transduction and recombinant protein expression. […]
Experiments were conducted at room temperature using IonWorks Quattro™ planar array electrophysiology technology (Molecular Devices Corp.) with PatchPlate™ PPC. […] Planar electrode hole resistances(Rp) were determined by applying a 10 mV voltage step across each well. […] Test pulses protocol may be performed in the absence (pre-read) and presence (post-read) of the test compound. Pre- and post-reads may be separated by the compound addition followed by a 3 minute incubation. […]

SMILES strings stand for the structures.

As to `CC1(C)NC(=O)N(c2ccc(Oc3ccc4c(c3)C(C(C)(C)C)OC4)nc2)C1=O` (single isomer, unassigned) [Example 50, 3-[6-[(3-tert-butyl-1,3-dihydroisobenzofuran-5-yl)oxy]-3-pyridyl]-5,5-dimethyl-imidazolidine-2,4-dione], in the data set on p-glycoprotein, the “change in AUC BB in the presence of Elacridar” value (“change in AUC BB” below) is given as “limited change”.

For `CC1(C)NC(=O)N(c2ccc(Oc3ccc4c(c3)C(C)(C(F)(F)F)OC4)nc2)C1=O` (single isomer, unassigned) [Example 52, 5,5-dimethyl-3-[6-[[3-methyl-3-(trifluoromethyl)-1H-isobenzofuran-5-yl]oxy]-3-pyridyl]imidazolidine-2,4-dione], the “change in AUC BB” value with p-glycoprotein is “limited change”.

Regarding `CC1(C)NC(=O)N(c2cnc(Oc3ccc4c(c3)C3(CCCC3)OC4)nc2)C1=O` [Example 12, 5,5-dimethyl-3-(2-spiro[1H-isobenzofuran-3,1′-cyclopentane]-5-yloxypyrimidin-5-yl)imidazolidine-2,4-dione], in the data set with p-glycoprotein, the “change in AUC BB” value is reported as “limited change”.

Turning to `CC[C@@]1(C)NC(=O)N(c2ccc(Oc3ccc4c(c3)C(C)(C)OC4)nc2)C1=O` [Example 33, (5R)-3-[6-[(3,3-dimethyl-1H-isobenzofuran-5-yl)oxy]-3-pyridyl]-5-ethyl-5-methyl-imidazolidine-2,4-dione], the “change in AUC BB” value in the data set with p-glycoprotein was “limited change”. Besides, the “increase in locomotor activity induced by amphetamine” value in data set [1] is reported as “completely prevented”.

As to `CC1(C)NC(=O)N(c2ccc(Oc3ccc4c(c3)C3(CCC3)OC4)nc2)C1=O` [Example 58, 5,5-dimethyl-3-(6-spiro[1H-isobenzofuran-3,1′-cyclobutane]-5-yloxy-3-pyridyl)imidazolidine-2,4-dione], the “change in AUC BB” value with p-glycoprotein is on record as “limited change”.

`CC[C@H]1NC(=O)N(c2ccc(Oc3cccc4c3C3(CC3)CO4)nc2)C1=O` [Reference Example 87, (5R)-5-ethyl-3-[6-(spiro[1-benzofuran-3,1′-cyclopropan]-4-yloxy)-3-pyridinyl]-2,4-imidazolidinedione]: the “difference in pEC50 values between the two channels” value in data set [2] came out at 0.7 log unit.

Regarding `CC1(C)NC(=O)N(c2ccc(Oc3cccc4c3C3(CC3)CO4)nc2)C1=O` [Reference Example 88, 5,5-dimethyl-3-[6-(spiro[1-benzofuran-3,1′-cyclopropan]-4-yloxy)-3-pyridinyl]-2,4-imidazolidinedione], the “difference in pEC50 values between the two channels” value in data set [2] was found to be 0.7 log unit.
